Patent US10669305B2, “C-3 novel triterpenone with C-28 urea derivatives as HIV inhibitors” (Hetero Labs Limited, priority 2015, dated 2020)
Where a name gives a salt, the structure may show the parent alone. Read-outs that look alike come from different tables or passages of the source.

Test system: HIV-1 strain 92HT599
Experiment: Antiviral activity, p24 estimation in HIV-1 92HT599 infected MT2 cells
Type: cell-based
Details: ~96 hours
Description: MT2 cells were infected with HIV-1 strain 92HT599 (10 TCID 50/30000 cells). The infected cells were plated at the concentration of ˜30,000 cells per well in 96 well plate. Test compound was added to the micro plate in defined format with the final concentration of DMSO (vehicle) is not more than 1%. Incubation was carried out in CO2 incubator for ˜96 hours for viral infection. At the end of incubation period an aliquot from each well was taken for p24 estimation. The quantitation of p24 is an index for antiviral activity of the compound. Percent inhibition was calculated with reference to control values (vehicle controls). P-24 estimation was carried out using Advance biosciences kit as per the procedure detailed by supplier.

[1] = Human immunodeficiency virus 1, 0% serum, read-out: 92HT599-Antiviral activity IC50 (nM) 0%
[2] = Human immunodeficiency virus 1, 40% serum, read-out: 92HT599-Antiviral activity IC50 (nM) 40%

| Structure (SMILES) | IC50 [1] [nM] | IC50 [2] [nM] |
| --- | --- | --- |
| CC(C)C1=C2[C@H]3CC[C@@H]4[C@@]5(C)CC[C@H](OC(=O)[C@H]6C[C@@H](C(=O)O)C6(C)C)C(C)(C)[C@@H]5CC[C@@]4(C)[C@]3(C)CC[C@@]2(NC(=O)N(CCN(C)C)Cc2ccc(Cl)cc2)CC1=O [Example 1, (1R,3S)-3-((((3aR,5aR,5bR,7aR,9S,11aR,11bR,13aS)-3a-(3-(4-chlorobenzyl)-3-(2-(dimethylamino)ethyl)ureido)-1-isopropyl-5a,5b,8,8,11a-pentamethyl-2-oxo-3,3a,4,5,5a,5b,6,7,7a,8,9,10,11,11a,11b,12,13,13a-octadecahydro-2H-cyclopenta[a]chrysen-9-yl)oxy)carbonyl)-2,2-dimethylcyclobutane-1-carboxylic acid hydrochloride] | < 5 | > 50 |
| CC(C)C1=C2[C@H]3CC[C@@H]4[C@@]5(C)CC[C@H](OC(=O)[C@H]6C[C@@H](C(=O)O)C6(C)C)C(C)(C)[C@@H]5CC[C@@]4(C)[C@]3(C)CC[C@@]2(NC(=O)N2CCC[C@H]2c2ncc(-c3ccccc3)n2CCN(C)C)CC1=O [Example 2, (1R,3S)-3-((((3aR,5aR,5bR,7aR,9S,11aR,11bR,13aS)-3a-((S)-2-(1-(2-(dimethylamino)ethyl)-5-phenyl-1H-imidazol-2-yl)pyrrolidine-1-carboxamido)-1-isopropyl-5a,5b,8,8,11a-pentamethyl-2-oxo-3,3a,4,5,5a,5b,6,7,7a,8,9,10,11,11a,11b,12,13,13a-octadecahydro-2H-cyclopenta[a]chrysen-9-yl)oxy)carbonyl)-2,2-dimethylcyclobutane-1-carboxylic acid] | < 5 | < 30 |
| CC(C)C1=C2[C@H]3CC[C@@H]4[C@@]5(C)CC[C@H](OC(=O)[C@H]6C[C@@H](C(=O)O)C6(C)C)C(C)(C)[C@@H]5CC[C@@]4(C)[C@]3(C)CC[C@@]2(NC(=O)N2CCC[C@H]2c2ncc(-c3ccccc3)[nH]2)CC1=O [Example 3, (1R,3S)-3-((((3aR,5aR,5bR,7aR,9S,11aR,11bR,13aS)-1-isopropyl-5a,5b,8,8,11a-pentamethyl-2-oxo-3a-((S)-2-(5-phenyl-1H-imidazol-2-yl)pyrrolidine-1-carboxamido)-3,3a,4,5,5a,5b,6,7,7a,8,9,10,11,11a,11b,12,13,13a-octadecahydro-2H-cyclopenta[a]chrysen-9-yl)oxy)carbonyl)-2,2-dimethylcyclobutane-1-carboxylic acid] | 5.01 to 10 | 30 to 50 |
| CC(C)C1=C2[C@H]3CC[C@@H]4[C@@]5(C)CC[C@H](OC(=O)[C@H]6C[C@@H](C(=O)O)C6(C)C)C(C)(C)[C@@H]5CC[C@@]4(C)[C@]3(C)CC[C@@]2(NC(=O)NC2(c3ccc(Cl)cc3)CC2)CC1=O [Example 4, (1R,3S)-3-((((3aR,5aR,5bR,7aR,9S,11aR,11bR,13aS)-3a-(3-(1-(4-chlorophenyl)cyclopropyl)ureido)-1-isopropyl-5a,5b,8,8,11a-pentamethyl-2-oxo-3,3a,4,5,5a,5b,6,7,7a,8,9,10,11,11a,11b,12,13,13a-octadecahydro-2H-cyclopenta[a]chrysen-9-yl)oxy)carbonyl)-2,2-dimethylcyclobutane-1-carboxylic acid] | < 5 | > 50 |
| CC(C)C1=C2[C@H]3CC[C@@H]4[C@@]5(C)CC[C@H](OC(=O)[C@H]6C[C@@H](C(=O)O)C6(C)C)C(C)(C)[C@@H]5CC[C@@]4(C)[C@]3(C)CC[C@@]2(NC(=O)NC(C)(C)c2ccc(Cl)cc2)CC1=O [Example 5, (1R,3S)-3-((((3aR,5aR,5bR,7aR,9S,11aR,11bR,13aS)-3a-(3-(2-(4-chlorophenyl)propan-2-yl)ureido)-1-isopropyl-5a,5b,8,8,11a-pentamethyl-2-oxo-3,3a,4,5,5a,5b,6,7,7a,8,9,10,11,11a,11b,12,13,13a-octadecahydro-2H-cyclopenta[a]chrysen-9-yl)oxy)carbonyl)-2,2-dimethylcyclobutane-1-carboxylic acid] | < 5 | < 30 |
| CC(C)C1=C2[C@H]3CC[C@@H]4[C@@]5(C)CC[C@H](OC(=O)[C@H]6C[C@@H](C(=O)O)C6(C)C)C(C)(C)[C@@H]5CC[C@@]4(C)[C@]3(C)CC[C@@]2(NC(=O)N(CCN(C)C)CC2(c3ccc(Cl)cc3)CC2)CC1=O [Example 6, (1R,3S)-3-((((3aR,5aR,5bR,7aR,9S,11aR,11bR,13aS)-3a-(3-((1-(4-chlorophenyl)cyclopropyl)methyl)-3-(2-(dimethylamino)ethyl)ureido)-1-isopropyl-5a,5b,8,8,11a-pentamethyl-2-oxo-3,3a,4,5,5a,5b,6,7,7a,8,9,10,11,11a,11b,12,13,13a-octadecahydro-2H-cyclopenta[a]chrysen-9-yl)oxy)carbonyl)-2,2-dimethylcyclobutane-1-carboxylic acid] | < 5 | 30 to 50 |
| CC(C)C1=C2[C@H]3CC[C@@H]4[C@@]5(C)CC[C@H](OC(=O)[C@H]6C[C@@H](C(=O)O)C6(C)C)C(C)(C)[C@@H]5CC[C@@]4(C)[C@]3(C)CC[C@@]2(NC(=O)NCc2ccc(Cl)cc2)CC1=O [Example 7, (1R,3S)-3-((((3aR,5aR,5bR,7aR,9S,11aR,11bR,13aS)-3a-(3-(4-chlorobenzyl)ureido)-1-isopropyl-5a,5b,8,8,11a-pentamethyl-2-oxo-3,3a,4,5,5a,5b,6,7,7a,8,9,10,11,11a,11b,12,13,13a-octadecahydro-2H-cyclopenta[a]chrysen-9-yl)oxy)carbonyl)-2,2-dimethylcyclobutane-1-carboxylic acid] | 5.01 to 10 | 30 to 50 |
| Cc1nnc(C(C)C)n1C1CC2CCC(C1)N2C(=O)N[C@@]12CC[C@]3(C)[C@H](CC[C@@H]4[C@@]5(C)CC[C@H](OC(=O)[C@H]6C[C@@H](C(=O)O)C6(C)C)C(C)(C)[C@@H]5CC[C@]43C)C1=C(C(C)C)C(=O)C2 (stereo partly drawn) [Example 8, (1R,3S)-3-((((3aR,5aR,5bR,7aR,9S,11aR,11bR,13aS)-1-isopropyl-3a-((1R,3S,5S)-3-(3-isopropyl-5-methyl-4H-1,2,4-triazol-4-yl)-8-azabicyclo[3.2.1]octane-8-carboxamido)-5a,5b,8,8,11a-pentamethyl-2-oxo-3,3a,4,5,5a,5b,6,7,7a,8,9,10,11,11a,11b,12,13,13a-octadecahydro-2H-cyclopenta[a]chrysen-9-yl)oxy)carbonyl)-2,2-dimethylcyclobutane-1-carboxylic acid] | 5.01 to 10 | > 50 |
| CC(C)C1=C2[C@H]3CC[C@@H]4[C@@]5(C)CC[C@H](OC(=O)[C@H]6C[C@@H](C(=O)O)C6(C)C)C(C)(C)[C@@H]5CC[C@@]4(C)[C@]3(C)CC[C@@]2(NC(=O)NC(C)(C)c2ncc(-c3ccccc3)[nH]2)CC1=O [Example 10, (1R,3S)-3-((((3aR,5aR,5bR,7aR,9S,11aR,11bR,13aS)-1-isopropyl-5a,5b,8,8,11a-pentamethyl-2-oxo-3a-(3-(2-(5-phenyl-1H-imidazol-2-yl)propan-2-yl)ureido)-3,3a,4,5,5a,5b,6,7,7a,8,9,10,11,11a,11b,12,13,13a-octadecahydro-2H-cyclopenta[a]chrysen-9-yl)oxy)carbonyl)-2,2-dimethylcyclobutane-1-carboxylic acid] | < 5 | < 30 |
| CC(C)C1=C2[C@H]3CC[C@@H]4[C@@]5(C)CC[C@H](OC(=O)[C@H]6C[C@@H](C(=O)O)C6(C)C)C(C)(C)[C@@H]5CC[C@@]4(C)[C@]3(C)CC[C@@]2(NC(=O)N(CCN2CCCCC2)Cc2ccc(Cl)cc2)CC1=O [Example 11, (1R,3S)-3-((((3aR,5aR,5bR,7aR,9S,11aR,11bR,13aS)-3a-(3-(4-chlorobenzyl)-3-(2-(piperidin-1-yl)ethyl)ureido)-1-isopropyl-5a,5b,8,8,11a-pentamethyl-2-oxo-3,3a,4,5,5a,5b,6,7,7a,8,9,10,11,11a,11b,12,13,13a-octadecahydro-2H-cyclopenta[a]chrysen-9-yl)oxy)carbonyl)-2,2-dimethylcyclobutane-1-carboxylic acid hydrochloride] | < 5 | 30 to 50 |
| Cc1nnc(C(C)C)n1CCN1CCN(C(=O)N[C@@]23CC[C@]4(C)[C@H](CC[C@@H]5[C@@]6(C)CC[C@H](OC(=O)[C@H]7C[C@@H](C(=O)O)C7(C)C)C(C)(C)[C@@H]6CC[C@]54C)C2=C(C(C)C)C(=O)C3)CC1 [Example 12, (1R,3S)-3-((((3aR,5aR,5bR,7aR,9S,11aR,11bR,13aS)-1-isopropyl-3a-(4-(2-(3-isopropyl-5-methyl-4H-1,2,4-triazol-4-yl)ethyl)piperazine-1-carboxamido)-5a,5b,8,8,11a-pentamethyl-2-oxo-3,3a,4,5,5a,5b,6,7,7a,8,9,10,11,11a,11b,12,13,13a-octadecahydro-2H-cyclopenta[a]chrysen-9-yl)oxy)carbonyl)-2,2-dimethycyclobutane-1-carboxylic acid] | > 10 | > 50 |
| CC(C)C1=C2[C@H]3CC[C@@H]4[C@@]5(C)CC[C@H](OC(=O)[C@H]6C[C@@H](C(=O)O)C6(C)C)C(C)(C)[C@@H]5CC[C@@]4(C)[C@]3(C)CC[C@@]2(NC(=O)N2CCC[C@H]2CN2CCCC2)CC1=O [Example 13, (1R,3S)-3-((((3aR,5aR,5bR,7aR,9S,11aR,11bR,13aS)-1-isopropyl-5a,5b,8,8,11a-pentamethyl-2-oxo-3a-((S)-2-(pyrrolidin-1-ylmethyl)pyrrolidine-1-carboxamido)-3,3a,4,5,5a,5b,6,7,7a,8,9,10,11,11a,11b,12,13,13a-octadecahydro-2H-cyclopenta[a]chrysen-9-yl)oxy)carbonyl)-2,2-dimethylcyclobutane-1-carboxylic acid] | < 5 | > 50 |
